Tests used:
[1] = Tissue distribution of LN002 after oral administration in rats; assay type: in vivo, Sprague–Dawley (SD) rats; settings: oral 200 mg/kg; for Cmax / Tmax / half-life: both sexes, Sprague-Dawley, rat; for Cmax / Tmax / half-life / AUC0-24 h: SD rats
Description: Thirty SD rats (15 for each sex) were randomly and equally assigned to 5 groups (half male and half female). The rats in each group were euthanized with pentobarbital sodium (a dose of 180 mg/kg) at five different time points: 0.5, 2, 6, 12 and 24 h after oral administration at 200 mg/kg LN002. Subsequently, various tissues, including the heart, liver, spleen, lungs, kidneys, brain, muscles, small intestine, and intestinal contents, were promptly collected ([Verma et al., 2022]). The dissected tissues were rinsed with normal saline, dried with an absorbent paper, homogenized using a tissue homogenizer, and stored at a temperature of −20°C until further analysis.
Tissue samples and intestinal contents were accurately weighed to 0.5 ± 0.02 g in a 10 mL EP tube and added with 2 mL of extraction solvent (acetonitrile: methanol [2:1, v/v]). The extraction solvent was vortexed for 1 min and centrifuged at 6,000 rpm and 4°C for 10 min. The supernatant was transferred to a new test tube and vortexed after adding 2 mL of water. The sample was purified using solid-phase extraction (SPE) using methanol as the extraction solvent. The Poly-Sery MAX SPE Cartridge (Shanghai Anpu Experimental Technology Co., Ltd., Shanghai, China) was added with 3 mL of methanol to activate, 3 mL of water to rinse, and the abovementioned extraction solvent. Afterward, 2 mL of 10% methanol water was poured into extraction columns to elute impurities. Finally, 1.5 mL of methanol was added to elute the compound and collect the eluent. Twenty microliters of the eluent was passed through a 0.22 μm filter membrane and then injected into the HPLC system for analysis.
A Shimadzu LC-20A system (Shimadzu Technologies, Kyoto, Japan) equipped with a LabSolutions system (version 5.1) system was used for HPLC analysis. The separation process utilized an ARD-C18 column (250 mm × 4.6 mm, 5 µm) (Zhongpu Technology Co., Ltd., Fuzhou, China). The analytes were detected using a UV detector at 333 nm. The chromatographic conditions used an isocratic mobile phase that combines methanol (solvent A) and deionized water (solvent B) (75:25, v/v), and they were propelled through the column at a constant flow rate of 1 mL/min, ensuring uniform separation. The injection volume was 20 μL. The temperature of the column was set to 40°C.
Pharmacokinetic data were obtained via non-compartmental PK analysis of total concentration versus time profiles for plasma using Phoenix WinNonlin 8.2 (Certara, L.P., Princeton, NJ, United States). Statistical analysis and graphing were undertaken using GraphPad Prism 9.5 for Windows (GraphPad Software, Inc., La Jolla, CA, United States).

[2] = Stability of LN002 in rat plasma, liver homogenate and intestinal contents under storage conditions; assay type: in vitro ADME; parameters: Short-term stability at room temperature (6 h), measured concentration / Freeze and thaw stability at −20°C/Room temperature (3 cycles), measured concentration / Auto-sampler stability (12 h), measured concentration / Long-term stability at −20°C (30 days), measured concentration: unit not given here; settings: for Auto-sampler stability (12 h), measured concentration / Freeze and thaw stability at −20°C/Room temperature (3 cycles), measured concentration / Long-term stability at −20°C (30 days), measured concentration / Short-term stability at room temperature (6 h), measured concentration: n = 6, mean ± SD
Description: By investigating the low, middle, and high-concentration stability of rat plasma, the liver and intestinal contents in six replicates at different storage conditions, autosampler, short-term, freeze and thaw, long-term stability, and stock solution stability evaluations were conducted.

[3] = intestinal contents, n = 6, mean ± SD
[4] = intestinal contents, nominal concentration 50 ng/g
[5] = intestinal contents, nominal concentration 200 ng/g
[6] = intestinal contents, nominal concentration 1,000 ng/g
[7] = liver, nominal concentration 50 ng/g
[8] = liver, nominal concentration 200 ng/g
[9] = liver, nominal concentration 1,000 ng/g
[10] = plasma, nominal concentration 50 ng/mL
[11] = plasma, nominal concentration 200 ng/mL
[12] = plasma, nominal concentration 1,000 ng/mL

SMILES: N#C/C(=C\c1c[nH]nc1-c1ccccc1)c1nn(-c2ccccc2)c(N)c1C#N [LN002, 5-amino-3-[1-cyano-2-(3-phenyl-4-vinopyrazole))-1-phenyl-4-vinopyrazole]
- Cmax ([1]; brain, n = 6, mean ± SD): 456 ± 80.9 ng/g
- Tmax ([1]; brain, n = 6, mean ± SD): 34.8 ± 11.4 min
- half-life ([1]; brain, n = 6, mean ± SD): 312 ± 139 min
- Cmax ([1]; heart, n = 6, mean ± SD): 972 ± 165 ng/g
- Tmax ([1]; heart, n = 6, mean ± SD): 34.2 ± 6.6 min
- half-life ([1]; heart, n = 6, mean ± SD): 409 ± 99 min
- Cmax [1, 3]: 4.45e+06 ng/g
- Tmax [1, 3]: 200 ± 96 min
- half-life [1, 3]: 98.4 ± 0.6 min
- Cmax ([1]; intestine, n = 6, mean ± SD): 607000 ng/g
- Tmax ([1]; intestine, n = 6, mean ± SD): 160 ± 89.4 min
- half-life ([1]; intestine, n = 6, mean ± SD): 329 ± 88.8 min
- Tmax ([1]; kidney, n = 6): 30 min
- Cmax ([1]; kidney, n = 6, mean ± SD): 561 ± 135 ng/g
- half-life ([1]; kidney, n = 6, mean ± SD): 302 ± 91.2 min
- Cmax ([1]; liver, n = 6, mean ± SD): 478 ± 157 ng/g
- Tmax ([1]; liver, n = 6, mean ± SD): 40.2 ± 11.4 min
- half-life ([1]; liver, n = 6, mean ± SD): 332 ± 39.6 min
- Cmax ([1]; lung, n = 6, mean ± SD): 8700 ± 1410 ng/g
- Tmax ([1]; lung, n = 6, mean ± SD): 125 ± 25.8 min
- half-life ([1]; lung, n = 6, mean ± SD): 326 ± 96 min
- Cmax ([1]; muscle, n = 6, mean ± SD): 3980 ± 589 ng/g
- Tmax ([1]; muscle, n = 6, mean ± SD): 34.8 ± 11.4 min
- half-life ([1]; muscle, n = 6, mean ± SD): 378 ± 163 min
- Tmax ([1]; spleen, n = 6): 30 min
- Cmax ([1]; spleen, n = 6, mean ± SD): 645 ± 187 ng/g
- half-life ([1]; spleen, n = 6, mean ± SD): 348 ± 116 min
- AUC0-24 h ([1]; brain, n = 6, mean ± SD): 1328.60 ± 176.19 h⋅ng/g
- AUC0-24 h ([1]; heart, n = 6, mean ± SD): 3855.84 ± 323.04 h⋅ng/g
- AUC0-24 h [1, 3]: 35080673.50 ± 644,065.57 h⋅ng/g
- AUC0-24 h ([1]; intestine, n = 6, mean ± SD): 2185750.70 ± 149,399.23 h⋅ng/g
- AUC0-24 h ([1]; kidney, n = 6, mean ± SD): 1781.24 ± 453.85 h⋅ng/g
- AUC0-24 h ([1]; liver, n = 6, mean ± SD): 4051.62 ± 586.44 h⋅ng/g
- AUC0-24 h ([1]; lung, n = 6, mean ± SD): 84,344.09 ± 9677.76 h⋅ng/g
- AUC0-24 h ([1]; muscle, n = 6, mean ± SD): 12,634.31 ± 2366.24 h⋅ng/g
- Rank order of concentration in tissues and intestinal contents ([1]; rats): intestinal contents, followed by the small intestine, lung, muscle, heart, liver, spleen, kidney, and brain
- Detection in tissues at the last time point (in words) ([1]; rats, 24 h): detected at 24 h in all tissues and intestinal contents
- AUC0-24 h ([1]; spleen, n = 6, mean ± SD): 2280.55 ± 418.06 h⋅ng/g
- Auto-sampler stability (12 h), measured concentration [2, 4]: 0.048 ± 0.001
- Freeze and thaw stability at −20°C/Room temperature (3 cycles), measured concentration [2, 4]: 0.050 ± 0.002
- Long-term stability at −20°C (30 days), measured concentration [2, 4]: 0.048 ± 0.002
- Short-term stability at room temperature (6 h), measured concentration [2, 4]: 0.051 ± 0.002
- Auto-sampler stability (12 h), measured concentration [2, 5]: 0.191 ± 0.011
- Freeze and thaw stability at −20°C/Room temperature (3 cycles), measured concentration [2, 5]: 0.192 ± 0.009
- Long-term stability at −20°C (30 days), measured concentration [2, 5]: 0.202 ± 0.003
- Short-term stability at room temperature (6 h), measured concentration [2, 5]: 0.204 ± 0.007
- Auto-sampler stability (12 h), measured concentration [2, 6]: 1.001 ± 0.034
- Freeze and thaw stability at −20°C/Room temperature (3 cycles), measured concentration [2, 6]: 0.978 ± 0.053
- Long-term stability at −20°C (30 days), measured concentration [2, 6]: 0.997 ± 0.012
- Short-term stability at room temperature (6 h), measured concentration [2, 6]: 0.976 ± 0.042
- Auto-sampler stability (12 h), measured concentration [2, 7]: 0.049 ± 0.002
- Freeze and thaw stability at −20°C/Room temperature (3 cycles), measured concentration [2, 7]: 0.051 ± 0.002
- Long-term stability at −20°C (30 days), measured concentration [2, 7]: 0.051 ± 0.002
- Short-term stability at room temperature (6 h), measured concentration [2, 7]: 0.050 ± 0.003
- Auto-sampler stability (12 h), measured concentration [2, 8]: 0.198 ± 0.007
- Freeze and thaw stability at −20°C/Room temperature (3 cycles), measured concentration [2, 8]: 0.205 ± 0.005
- Long-term stability at −20°C (30 days), measured concentration [2, 8]: 0.196 ± 0.007
- Short-term stability at room temperature (6 h), measured concentration [2, 8]: 0.197 ± 0.009
- Auto-sampler stability (12 h), measured concentration [2, 9]: 1.065 ± 0.036
- Freeze and thaw stability at −20°C/Room temperature (3 cycles), measured concentration [2, 9]: 0.985 ± 0.057
- Long-term stability at −20°C (30 days), measured concentration [2, 9]: 0.995 ± 0.064
- Short-term stability at room temperature (6 h), measured concentration [2, 9]: 0.984 ± 0.042
- Auto-sampler stability (12 h), measured concentration [2, 10]: 0.050 ± 0.002
- Freeze and thaw stability at −20°C/Room temperature (3 cycles), measured concentration [2, 10]: 0.048 ± 0.002
- Long-term stability at −20°C (30 days), measured concentration [2, 10]: 0.052 ± 0.002
- Short-term stability at room temperature (6 h), measured concentration [2, 10]: 0.051 ± 0.003
- Auto-sampler stability (12 h), measured concentration [2, 11]: 0.204 ± 0.014
- Freeze and thaw stability at −20°C/Room temperature (3 cycles), measured concentration [2, 11]: 0.197 ± 0.014
- Long-term stability at −20°C (30 days), measured concentration [2, 11]: 0.203 ± 0.006
- Short-term stability at room temperature (6 h), measured concentration [2, 11]: 0.210 ± 0.013
- Auto-sampler stability (12 h), measured concentration [2, 12]: 0.992 ± 0.061
- Freeze and thaw stability at −20°C/Room temperature (3 cycles), measured concentration [2, 12]: 1.028 ± 0.035
- Long-term stability at −20°C (30 days), measured concentration [2, 12]: 1.035 ± 0.080
- Short-term stability at room temperature (6 h), measured concentration [2, 12]: 0.987 ± 0.032
- Stability in plasma and tissue homogenate (in words) ([2]; rat plasma, liver, intestinal contents, short-term, freeze and thaw, auto-sampler, long-term): stable
